According to patent US8202908B1, “D-aspartic acid supplement” (priority 2008, dated 2012):

Tests used:
pituitary = details: both in-vitro and in-vivo; cited from earlier work
testes = details: both in-vitro and in-vivo; cited from earlier work
pituitary gland = details: both in-vitro and in-vivo; cited from earlier work
animals = details: cited from earlier work
adult male humans = assay: Oral DL-aspartic acid given to adult male humans for 21 days, blood hormone levels; type: in vivo, human; details: adult males aged twenty to sixty; 10, 20 or 40 grams DL-aspartic acid per day orally in two doses for twenty-one days; versus baseline
Method: This example illustrates the effects of administering D-aspartic acid to adult male humans.
A group of nine adult males ranging in age from twenty to sixty is divided into three groups of three men each. The division is made so that each group contains a similar age distribution. Blood samples are taken and the levels of testosterone, growth hormone, and insulin-like growth factor 1 are measured.
The men in the first group orally ingest 10 grams of DL-aspartic acid (which includes 5 grams of D-aspartic acid) daily for twenty-one days. The amount is divided into two equal doses, one of which is taken in the morning and one of which is taken in the evening. The men in the second and third groups follow a similar procedure except the men in the second group orally ingest 20 grams of DL-aspartic acid (which includes 10 grams of D-aspartic acid) per day and the men in the third group orally ingest 40 grams of DL-aspartic acid (which includes 20 grams of D-aspartic acid) per day. Blood samples are then retaken.

finishing pigs = finishing pigs fed with N-methyl-D-aspartate; cited from earlier work

Structure (SMILES)	release of luteinizing hormone from the pituitary (pituitary)	release of testosterone from the testes (testes)	growth hormone production from the pituitary gland (pituitary gland)	growth hormone levels in the animals (animals)	testosterone levels in the animals (animals)	level of growth hormone in blood (adult male humans)	level of insulin-like growth factor 1 in blood (adult male humans)	level of testosterone in blood (adult male humans)	growth rate (finishing pigs)
N[C@H](CC(=O)O)C(=O)O [D-aspartic acid]	stimulate the release	stimulate the release	stimulate growth hormone production	increase	increase				
NC(CC(=O)O)C(=O)O (racemic) [DL-aspartic acid]						significant increases	significant increases	significant increases	
CN[C@H](CC(=O)O)C(=O)O [N-methyl-D-aspartate]			stimulate growth hormone production	increase	increase				increase in growth rate
